{"source": "patent US10588902B2", "about": "“Camptothecin derivatives as anti-HIV agents and methods of identifying agents that disrupt Vif self-association” (OyaGen, Inc., priority 2013, dated 2020)", "key": {"[1]": {"conditions": "PubChem BioAssays; cited from earlier work"}, "A3.01 cells": {"test_system": "A3.01 cells", "test": "cell cycle test (propidium iodide, flow cytometry)", "format": "cell-based", "conditions": "for G2 block: CPT 0.2 μM, OYA002-16 0.2 and 0.4 μM", "description": "FIGS. 9A and 9B illustrate results of an in vitro drug screening assay for toxicity of the OYA002-16 small molecule of the present invention. […] After 24 hours of compound treatment cells were fixed in methanol and treated with propidium iodide (PI) to stain the cellular DNA in A3.01 cells (a CEM derived T-cell line). Flow cytometry of the cells can detect if the cells are in the G1 S or G2 phase of mitosis based on amount of PI staining in each cell."}, "Topo1": {"target": "T1, Topo1 (Homo sapiens, UniProt P11387)", "T1 construct": "purchased Topogen", "T1 sequence (P11387 1-765)": "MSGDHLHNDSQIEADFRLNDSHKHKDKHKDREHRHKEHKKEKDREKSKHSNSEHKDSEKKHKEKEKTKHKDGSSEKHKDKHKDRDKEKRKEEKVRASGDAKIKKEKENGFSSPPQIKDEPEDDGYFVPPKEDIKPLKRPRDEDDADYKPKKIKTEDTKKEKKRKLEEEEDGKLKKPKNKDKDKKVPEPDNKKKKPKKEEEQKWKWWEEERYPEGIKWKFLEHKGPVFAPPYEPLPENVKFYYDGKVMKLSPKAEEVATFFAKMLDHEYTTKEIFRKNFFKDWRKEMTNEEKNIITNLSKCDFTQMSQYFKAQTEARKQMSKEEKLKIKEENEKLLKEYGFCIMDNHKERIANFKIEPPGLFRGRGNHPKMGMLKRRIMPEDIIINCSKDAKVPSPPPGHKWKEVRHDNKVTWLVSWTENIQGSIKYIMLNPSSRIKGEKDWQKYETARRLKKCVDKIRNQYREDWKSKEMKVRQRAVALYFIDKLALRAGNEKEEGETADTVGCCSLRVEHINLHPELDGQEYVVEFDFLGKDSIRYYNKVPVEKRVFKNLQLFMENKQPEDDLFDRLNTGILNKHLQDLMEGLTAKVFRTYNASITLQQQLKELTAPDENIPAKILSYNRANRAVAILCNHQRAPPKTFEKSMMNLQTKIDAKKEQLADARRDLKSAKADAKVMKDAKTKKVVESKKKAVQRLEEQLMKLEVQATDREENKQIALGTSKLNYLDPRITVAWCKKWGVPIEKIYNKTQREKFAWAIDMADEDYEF", "test": "in vitro Topo1 drug screening assay (Topogen)", "format": "biochemical", "conditions": "increasing amounts, compared to the 0 chem control"}, "pseudotyped HIV": {"test_system": "pseudotyped HIV", "test": "single round infectivity assay with pseudotyped HIV (TZM-bl luciferase reporter cells)", "format": "cell-based", "conditions": "up to 33.3 μM, +/−Vif, +/−A3G", "procedure": "The antiviral activity of the hits in a single round infection with psuedotyped HIV was assessed. […] The wildtype HIV proviral vector codes for all HIV genes except nef (replaced with EGFP) and env. The delta Vif proviral vector is identical to wildtype except that it contains a stop codon early within the vif gene. […] Alternatively, in the absence of A3G, both wild type and Delta Vif viruses should have good infectivity.\nTransfecting the coat protein on a separate vector, allows for only a single round of infection. […] Viral load was normalized with a p24 ELISA Kit (Zeptometrix, Buffalo, N.Y.). Equal viral loads were then added in triplicate to TZM-bl reporter cells that express luciferase from the HIV-LTR promoter. 48 hours after infection luciferase levels were assessed with Steady-Glo reagent (Promega).\nThe antiviral activity of the hits in a single-round infection with pseudotyped HIV were conducted using HEK293T producer cells +/−A3G and viruses that are +/−Vif. […]\nThe infections utilized TZM-bl reporter cells that contain stably integrated luciferase that is driven by the HIV-LTR promoter, therefore luciferase is expressed upon successful HIV infection. […] Luminescence was measured as a quantitative metric for changes in infectivity with each compound as compared to controls, in which relative luminescence units (RLU) with no compounds are set to 100%."}, "Vif:Vif complex": {"target": "T2, Vif:Vif complex (Human immunodeficiency virus type 1 group M subtype B, UniProt P12504)", "T2 construct": "expressed in transfected cells; host or cells: HEK 293T cells, transient co-transfection of two plasmids", "T2 sequence (P12504 whole entry, one chain of several)": "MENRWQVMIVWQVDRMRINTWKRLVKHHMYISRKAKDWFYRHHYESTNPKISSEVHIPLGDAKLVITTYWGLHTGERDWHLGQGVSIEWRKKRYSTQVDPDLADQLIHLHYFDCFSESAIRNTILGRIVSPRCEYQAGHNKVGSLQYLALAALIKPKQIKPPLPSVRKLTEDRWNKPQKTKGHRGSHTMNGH", "format": "cell-based, HIV", "conditions": "change in RFU over the quenched control", "quoted_text": "EGFP-V5-Vif (the fluorescence donor) and Vif-HA-REACh2 (the acceptor and non-fluorescent YFP variant that quenches EGFP fluorescence) will be co-expressed in HEK 293T cells. Compounds that dissociate Vif multimers will induce EGFP fluorescence making this a positive screen for small molecules that disrupt Vif self-association.\nEGFP is a FRET donor and REACh2 (Resonance Energy Accepting Chromoprotein 2) is a non-fluorescent FRET acceptor (54). The non-fluorescent REACh2 is able to quench EGFP signal in a distance-dependent manner when they are linked to interacting domains. However, if there is no interaction, EGFP and REACh2 are not proximal and quenching will not occur. […]\nEGFP-V5-Vif alone has a strong baseline fluorescence. […]\nExperimentals relating to adapting the quenched FRET assay to 96-well and 384-well format are set forth below: • Description of reagents and readouts: We are currently capable of screening small libraries in 96-well format, and have optimized transfections for 384-well format. […] REACh2 is a non-fluorescent YFP variant that quenches EGFP through FRET, so in the default state Vif dimerizes and the EGFP signal is quenched, a compound that affects the interaction will cause an increase in fluorescence due to lack of FRET from interacting proteins (aka “releasing of the quench”). Our read out is fluorescence at GFP's excitation and emission in a PE Victor 3 plate reader. […]"}, "[2]": {"test_system": "rat hepatocytes and HepG2 cells", "test": "high content imaging toxicity study, all tested cell types", "format": "cell-based", "description": "(§1) All cells are plated on 384-well collagen-coated, tissue culture-treated black walled clear bottomed polystyrene plates. Rat hepatocytes are seeded and dosed on the day they are harvested. Dosing takes place after attachment to the plate. They are treated with test compound at a 10 point dose range of concentrations and incubated for 24 and 48 hrs. HepG2 cells are seeded on the day prior to dosing and are treated with test compound at a 10 point dose range of concentrations and incubated for 24 and 72 hours. At the end of the incubation period, the cells are loaded with the relevant dye/antibody for each cell health marker. The plates are then scanned using an automated High Content Imager, Array Scan® VTI (Thermo Fisher Cellomics). The GSH, ROS, and 5 day toxicity assays were run at 1 time point, 18 hours post-dosing for GSH, 4 hr post-dose for ROS, and 5 days post-drug treatment for the 5 day assay."}, "[3]": {"test": "stability test in PBS buffer", "format": "physicochemical", "conditions": "after 48 h in PBS", "description": "For each compound, a 0.250 uM stock solution in DMSO was prepared and sonicated until clear. Then, for each stability test, the cpd was formulated by adding 10 uL of the stock solution to 990 uL of PBS buffer, pH 7.0 and then a 200 uL aliquot was incubated 37° C. for 24 or 48 hrs.\n(§2) HPLC conditions used for the experiments were as follows: Column: Luna C-18, 150×4.6 from Phenomenex. Eluent: 42% aqueous CAN with 0.75 mM NH4OAc, pH=6.8. Detection: UV at 254 nm. Temperature: 35° C. Flow: 1.5 mL/min. Injection: 20 uL (solubility, freeze/thaw) or 200 uL (stability)."}, "885 bp region of Pol": {"test_system": "885 bp region of Pol", "test": "Next Gen Sequencing for A3G signature mutation profiles", "format": "cell-based, HIV", "source_text": "FIG. 14 is an illustration relating to a Next Gen Sequencing for A3G signature mutation profiles. Next Gen Sequencing with the Ion Torrent platform was used to sequence over 27 million bases for each sample. An 885 bp region of Pol was nested PCR amplified from genomic DNA isolated from TZM-bl cells infected in the previous Figures with −Vif virus+A3G (Positive Control) and +Vif virus+A3G & OYA002-16 (OYA002-16) and −Vif−A3G & OYA002-16 (Negative Control). There were 60 possible A3G “GG” signature mutation sites (A3G mediated single-stranded DNA mutations occur preferentially at the 3′ C of CC dinucleotide pairs) in the region sequenced. 34 sites were mutated at a rate of 15- to 339-fold over the background mutation rate for the Positive Control. 34 sites were mutated at a rate of 48 to 200-fold over background for the OYA002-16 sample. 21 sites overlapped between the two."}, "HepG2 cells": {"test_system": "HepG2 cells", "test": "high content imaging toxicity study, HepG2", "format": "cell-based", "description": "as §1"}, "[4]": {"test_system": "Vif-dependent A3G degradation", "test": "in-cell secondary screen for Vif-dependent A3G degradation (A3G-mCherry 293T cells)", "format": "cell-based", "conditions": "compared to +Vif (0%) and −Vif (100%) controls", "description": "FIG. 10 illustrates in-cell secondary screen fro Vif-dependent A3G degradation. […] 50 ng of Vif was transiently transfected into the cells in 384-well format with Turbofect. 4 hours after transfection the chemistries were added to cells. 24 hours after chemistries were added the mCherry signal was read on a Biotek Synergy 4 plate reader. The signal from plated cells not transfected with Vif was averaged and set at 100% (left image), and cells transfected with Vif and treated with DMSO only were averaged and set at 0% (right image). A chemistry that inhibits Vif's ability to chaperone A3G to the proteasomal degradation pathway would result in an increased mCherry signal compared to the DMSO only control, and any signal that is much higher than the no-Vif positive control is likely to be due to autofluorescence from the chemistry itself.\nThe primary screen is represented as a change in RFU over the quenched control (ARFU). The secondary screen is compared to the +Vif (0%) and −Vif (100%) controls as described in FIG. 10."}, "A3G in viral particles": {"test_system": "A3G in viral particles", "test": "A3G viral particle content (western blot of purified viral particles)", "format": "cell-based", "conditions": "p24 normalized", "source_text": "Perform ‘hit’ validation assays to confirm that small molecules selected by the primary and secondary screens have antiviral activity through their antagonism of Vif self-association. Antiviral activity will be validated for each compound with a luciferase viral infectivity reporter assay using infected TZM-bl cells in microtiter plate format. Each compound's ability to inhibit Vif-Vif interaction will be evaluated by co-immunoprecipitation.\nAnother way to observe target specificity is by looking at the amount of A3G that is encapsulated into the viral particle. Since Vif blocks A3G from getting into the virus, more A3G should be present in viral particles isolated from cells dosed with a small molecule that disables Vif's function."}, "[5]": {"test": "stability test after 3 freeze/thaw cycles", "format": "physicochemical", "description": "For each compound, an aliquot of the stock solution (250 uM in DMSO) was frozen for 24 hrs at −80° C. and thawed for 1 hr, 3 times, then diluted 10 times in 40% CAN and analyzed by HPLC.\nas §2"}, "solubility in Lac-Buffer": {"test": "solubility in Lac-Buffer", "format": "physicochemical", "conditions": "37 °C, thermodynamic from solid", "description": "Solubility: 0.7 mg of OYA002-16 was suspended in 100.8 μl Lac-Buffer pH 4.5 or pH 7.4, vortexed for 10 min and warmed-up at 37° C. for 10 min, sonicated for 5 min and vortexed again for 10 min and centrifuged for 10 min. Supernatant was directly injected for concentration measurement. pH 7.4 Solubility: 65-72 μM by UV, 58-63 μM by CLND. pH 4.5 Solubility: 74-92 μM by UV, 74 μM by CLND.\nas §2"}}, "data": [{"smiles": "CC[C@@]1(O)C(=O)OCc2c1cc1n(c2=O)Cc2cc3c(NC(=O)CN)cccc3nc2-1", "note": "[9-glycineamido-20(S)-CPT]", "values": [{"measurement": "active in Anti-Cancer Screens at NCI", "setting": "[1]", "value": "37 of 76"}]}, {"smiles": "CC[C@@]1(O)C(=O)OCc2c1cc1n(c2=O)Cc2cc3ccccc3nc2-1", "note": "[CPT, Camptothecin]", "values": [{"measurement": "G2 block", "setting": "A3.01 cells; 24 hours", "value": "strong G2 block"}, {"measurement": "open nicked circles of plasmid DNA (Topo1 poisoning)", "setting": "Topo1", "value": "trap plasmid DNA into open nicked circles"}]}, {"smiles": "CC[C@@]1(O)C(=O)NCc2c1cc1n(c2=O)Cc2cc3ccccc3nc2-1", "note": "[OYA002-16, Lactam-CPT]", "values": [{"measurement": "cell cycle effects", "setting": "A3.01 cells", "value": "minimal cell cycle effects"}, {"measurement": "cells in G2", "setting": "A3.01 cells; 0.2 and 0.4 μM, 24 hours, DMSO control 17%", "value": 22, "unit": "%"}, {"measurement": "G2 block", "setting": "A3.01 cells; 24 hours", "value": "minimal amount of G2 block"}, {"measurement": "antiviral effect in single cycle HIV infectivity", "setting": "pseudotyped HIV", "value": "dose dependent antiviral effect only when Vif and A3G were expressed"}, {"measurement": "dose dependence in primary screen", "setting": "Vif:Vif complex", "value": "dose dependence"}, {"measurement": "Stress and Apoptosis assays", "setting": "[2]", "value": "minimal effect"}, {"measurement": "Viability tests", "setting": "[2]", "value": "minimal effect"}, {"measurement": "stable", "setting": "[3]", "value": 100, "unit": "%"}, {"measurement": "mutated sites overlapping with Positive Control", "setting": "885 bp region of Pol", "value": 21, "unit": "sites"}, {"measurement": "A3G signature mutation sites mutated", "setting": "885 bp region of Pol; +Vif virus +A3G, 60 possible sites", "value": 34, "unit": "sites"}, {"measurement": "Cytostasis", "setting": "HepG2 cells", "value": "largest effect"}, {"measurement": "open nicked circles of plasmid DNA (Topo1 poisoning)", "setting": "Topo1", "value": "no increase in open nicked circles"}, {"measurement": "dose dependence in secondary screen (mCherry signal)", "setting": "[4]", "value": "dose dependence"}, {"measurement": "A3G in viral particles", "setting": "A3G in viral particles", "value": "increases A3G in viral particles"}, {"measurement": "stable", "setting": "[5]", "value": 100, "unit": "%"}, {"measurement": "solubility at 35 min", "setting": "solubility in Lac-Buffer; pH 4.5, aqueous buffer, pH 4.5, by CLND", "value": 74, "unit": "µM"}, {"measurement": "solubility at 35 min", "setting": "solubility in Lac-Buffer; pH 4.5, aqueous buffer, pH 4.5, by UV", "value": "74 to 92", "unit": "µM"}, {"measurement": "solubility at 35 min", "setting": "solubility in Lac-Buffer; pH 7.4, aqueous buffer, pH 7.4, by CLND", "value": "58 to 63", "unit": "µM"}, {"measurement": "solubility at 35 min", "setting": "solubility in Lac-Buffer; pH 7.4, aqueous buffer, pH 7.4, by UV", "value": "65 to 72", "unit": "µM"}]}, {"smiles": "CC[C@@]1(O)C(=O)OCc2c1cc1n(c2=O)Cc2cc3c(CN(C)C)c(O)ccc3nc2-1", "note": "[Topotecan]", "values": [{"measurement": "active in Anti-Cancer Screens at NCI", "setting": "[1]", "value": "active in most"}]}, {"smiles": "CC[C@H]1C(=O)OCc2c1cc1n(c2=O)Cc2cc3ccccc3nc2-1", "note": "[deoxy-CPT]", "values": [{"measurement": "active in Anti-Cancer Screens at NCI", "setting": "[1]", "value": "4 of 68"}]}]}
